# According to patent US12029789B2, “Agent for use in the treatment of glioma” (DC EUROPA LIMITED, priority 2015, dated 2024):
# Assays:
# [1] = system: S24 GBMSC astrocytoma cells; assay: In vivo calcium imaging with MPLSM: intercellular calcium waves (frequency, synchronicity of calcium peaks) in tumor cells; design: species or system mouse
# Protocol: The following small molecule calcium indicators were used: for GFP-transfected tumor cells: 2 mM Rhod-2AM (life technologies, R-1244); for RFP-transfected: 2 mM Fluo-4AM (life technologies, F-14201). The dissolved dyes were applied to the brain surface for 45 min. Regions with a similar tumor cell density were used. […] Pharmacological gap junction inhibition was achieved by superfusion with the gap junction inhibitor CBX (100 μM; control substance: extracellular saline; n=3 mice per group).
# Two genetically-encoded calcium indicators were lentivirally transduced to GBMSCs: (A) The Lck-GCaMP3 sensor in the rrl-CAG-IGC3 vector (CAG promoter to control expression of DsRed and the Ca^2+ sensor that monitors near-membrane changes in [Ca^2+]i). (B) The radiometric calcium sensor Twitch-3 was used to determine intracellular calcium concentrations by Förster Resonance Energy Transfer (FRET) as known in the art.
# Tumor cells or non-malignant brain astrocytes were marked manually by the use of the ROI Manager of ImageJ. Mean gray values were measured over time. […] Local maxima of calcium signals were detected by the findpeaks function (signal package, Octave-Forge). Thus, the number of calcium peaks of each cell (N) could be determined and the frequency (f) was calculated. The frequency was standardized for the cell number of each region to ensure comparability. Synchronous cells, the number of synchronous communications, and the time point of the synchronous firing were determined. Due to the fact that the images were recorded via a line mode, which leads to a latency of signal detection, the analysis was done in a window of 2 frames around each peak. This allowed to assess the synchronicity S (S∈R^+∪{0}), which was defined as the fraction of the whole number of synchronous cells (N_Syn) divided by the number of calcium peaks for the given cell (N_Ca). In case the cells were not active, a synchronicity of zero was allotted.
# For example, in a system with a synchronicity of 1, a firing cell interacts with a second one. […]
# [2] = system: normal brain astrocytes; assay: In vivo calcium imaging with MPLSM: calcium waves in co-registered normal brain astrocytes; design: species or system mouse; details: superfusion with suramin 100 μM (ATP receptor blockade); FIG. 8D
# Protocol: The following small molecule calcium indicators were used: for GFP-transfected tumor cells: 2 mM Rhod-2AM (life technologies, R-1244); for RFP-transfected: 2 mM Fluo-4AM (life technologies, F-14201). The dissolved dyes were applied to the brain surface for 45 min. Regions with a similar tumor cell density were used. For the combination of radiotherapy and calcium imaging, mice were pretreated with Fluo-4AM and imaged after awaking with low isoflurane (0.5%). One hour after radiotherapy, the same regions were imaged again to detect changes in calcium activity. Pharmacological gap junction inhibition was achieved by superfusion with the gap junction inhibitor CBX (100 μM; control substance: extracellular saline; n=3 mice per group). […]
# Tumor cells or non-malignant brain astrocytes were marked manually by the use of the ROI Manager of ImageJ. Mean gray values were measured over time. […] Local maxima of calcium signals were detected by the findpeaks function (signal package, Octave-Forge). Thus, the number of calcium peaks of each cell (N) could be determined and the frequency (f) was calculated. […] Synchronous cells, the number of synchronous communications, and the time point of the synchronous firing were determined. Due to the fact that the images were recorded via a line mode, which leads to a latency of signal detection, the analysis was done in a window of 2 frames around each peak. […]
# [3] = system: S24 GBMSCs; assay: Intratumoral microinjection of sulforhodamine 101 (SR101): dye distribution in TM-connected tumor cell network; assay type: in vivo, mouse; details: SR101 100 μM co-injected with 100 μM CBX, 120 min after injection; FIG. 7G
# Protocol: For intratumoral microinjection of sulforhodamine 101 (SR101, Molecular Probes, S-359), 50 nl of 100 μM SR101 (with or without 100 μM CBX, Sigma-Aldrich, C4790) were injected with a very thin glass pipette into tumor regions of similar cellular densities, >90 days after tumor injection.
# For in vivo imaging data, TM numbers, branches/TM and connections/cell were counted manually, and TM lengths were measured manually in the slice mode in Imaris. For quantification and analysis of tumor cells/TMs before and after radiotherapy, cells were counted in the same regions before radiation or sham radiation, and at different time points afterwards. Cells without a TM-connection were defined as “non-connected” and cells with at least one TM-connection(s) as “connected”. To analyze the number of TMs before and after irradiation, the TMs of individual, identical cells were counted at both time points. Ratios were calculated to determine the relative changes of cell and TM numbers over time. For the measurement of tumor volumes in BT088 tumors before and after radiotherapy, two regions were analyzed per animal using the surface function of Imaris. The mean speed of tumor cell invasion in S24 shControl vs. shGAP-43 tumors was determined by analysis of three consecutive imaging time points within a 24 hour time interval in vivo. […] They were connected to tracks and the mean track speed was calculated. […]
smiles,measurement,setting,value
Cc1ccc(C(=O)Nc2ccc(S(=O)(=O)O)c3cc(S(=O)(=O)O)cc(S(=O)(=O)O)c23)cc1NC(=O)c1cccc(NC(=O)Nc2cccc(C(=O)Nc3cc(C(=O)Nc4ccc(S(=O)(=O)O)c5cc(S(=O)(=O)O)cc(S(=O)(=O)O)c45)ccc3C)c2)c1 [suramin],ICWs in malignant astrocytic cells,"[1]; superfusion with suramin 100 μM (ATP receptor blockade), FIG. 8D",reduced ICWs
same,ICWs in normal astrocytic cells,[2],reduced ICWs
"CC1(C)[C@@H](OC(=O)CCC(=O)O)CC[C@]2(C)[C@H]3C(=O)C=C4[C@@H]5C[C@@](C)(C(=O)O)CC[C@]5(C)CC[C@@]4(C)[C@]3(C)CC[C@@H]12 [CBX, carbenoxolone]",frequency and synchronicity of ICWs in GBMSC astrocytoma cells,"[1]; brain superfusion with 100 μM carbenoxolone (CBX) vs. extracellular saline, S24, FIG. 7E",reduced
same,distribution of sulforhodamine 101 in the TM-connected tumor cell network,[3],inhibited
"NCCOB(c1ccccc1)c1ccccc1 [2-APB, 2-aminoethoxydiphenyl borate]",ICWs between astrocytoma cells,"[1]; superfusion with 2-APB 100 μM (inhibitor of IP3 receptors), FIG. 8D",reduced ICWs
